Data on 1 compound can be found in patent publication US10781183B2, “Small molecule inducers of reactive oxygen species and inhibitors of mitochondrial activity” (The Regents of the University of Michigan, priority 2016, dated 2020).

Data set [1] has as its system MiaPaCa-2 cells. In words: Bru-seq analysis for nascent RNA synthesis. It counts as cell-based. The source says:
A bromouridine labeled RNA sequencing (Bru-seq) technique was used to better characterize molecular mechanisms of these novel agents. Bru-seq is able to capture real-time synthesis of the nascent RNA, so as to provide information on global gene transcription without interference by RNA stability or biased gene selection (Paulsen et al., 2014, Paulsen et al., 2013). […] Profiling of all genes with >1.5-fold change in expression upon treatment of QD232 or QD325 identified NRF2-mediated oxidative stress response and unfolded protein response (UPR) as key pathways implicated in drug action (FIG. 8A).
Bru-seq analysis was performed as previously reported (Paulsen et al., 2014). Briefly, 4×10^6 MiaPaCa-2 cells were placed in 10 cm dishes on Day 1. On Day 2, cells were treated with DMSO, QD232 or QD325 for 4 h. Bromouridine was added into the media to label newly synthesized nascent RNA in the last 30 min of treatment to a final concentration of 2 mM. Cells were then collected in TRIZOL and total RNA was isolated. Bromouridine containing RNA population was further isolated and sent for sequencing. Sequencing reads were mapped to the HG19 reference genome. Pre-ranked gene lists were generated for each treatment through ranking genes by fold changes in gene synthesis levels compared with control, and analyzed with GSEA (Broad Institute, MA) (Subramanian et al., 2005, Mootha et al., 2003)

For data set [2], the system named is MiaPaCa-2 cells. In words: MTT cytotoxicity assay, MiaPaCa-2. The conditions noted are these: for IC50: Homo sapiens, Mean ± SD, three independent experiments. The format is cell-based.
The test system of another data set is BxPC-3 cells. In words: MTT cytotoxicity assay, BxPC-3. The format is cell-based. To be noted: Homo sapiens, three independent experiments.
For data set [3], the system named is mtDNA content in MiaPaCa-2 cells. In words: Measurement of mtDNA content by qPCR. The format is cell-based. The conditions noted are these: MiaPaCa-2 (FIG. 11C). Here is the method:
To assess mtDNA content, genomic DNA was isolated with QIAamp® DNA mini kit (Qiagen, Germantown, Md.) from MiaPaCa-2 cells. The mtDNA content was evaluated by co-amplifying a DNA fragment encoding mitochondrial 12S rRNA (forward primer: 5′-[…]-3′; reverse primer: 5′-TGCGCTTACTTTGTAG CCTTCAT-3′) and a DNA fragment encoding the nuclear 18S rRNA (forward primer: 5′-CCCTGCC CTTTGTACACACC-3′; reverse primer: 5′-GATCCGAGGGCCTCACTA-3′). (Vadrot et al., 2012) Real-time qPCR was performed on Viia7 cycler (Applied Biosystems). Amplifications were monitored and analyzed by measuring the intercalation of the fluorescent dye from Fast SYBR® Green Master Mix (Applied Biosystems). Relative mtDNA contents were calculated using 18S rRNA as gene reference.
A general note: In qPCR the cycle at which signal appears reflects the starting amount.

Another data set relates to Panc-1 cells. In words: MTT cytotoxicity assay, Panc-1. It counts as cell-based. To be noted: three independent experiments. A general note: Tetrazolium assays rely on reduction of a dye to a coloured formazan, in cell work by metabolically active cells.
The subject of data set [4] is MiaPaCa-2 cells. The experiment in a line: ROS detection assay (H2DCFDA probe). It counts as cell-based. Here is the method:
To quantify ROS induction by redox modulators, a high throughput ROS assay in 384-well plates using H2DCFDA as the ROS detection probe was developed (FIG. 1A).
Cells were detached by 0.05% trypsin-EDTA, neutralized, centrifuged (1200 rpm, 5 min) and resuspended in cell culture media. Suspension were then treated with 20 μM cell permeable H2DCFDA for 30 min at 37° C. Cells were then centrifuged (1200 rpm, 5 min) and washed with cell culture media to remove excess probe. After washing, cells were placed in black-wall 384-well plate at 20,000 cells/well, incubated for 30 min and treated by compounds at designated conditions. Fluorescent signal were then read at 493 nm/523 nm on BioTek H1 plate reader for ROS detection.

The next data set deals with HPDE. The experiment in a line: MTT cytotoxicity assay, immortalized pancreatic cell line HPDE. The conditions noted are these: HPDE vs MiaPaCa-2. It counts as cell-based, human. Here is the method:
MiaPaCa-2, Panc-1 and BxPC-3 pancreatic cancer cell lines were obtained from the ATCC. Normal pancreatic cells HPDE and HPNE were kindly provided (Translational Oncology Program, University of […], Ann Arbor, Mich.). Gemcitabine resistant cell line MiaPaCa-2-GR (gemcitabine resistant) was kindly provided (Department of Pathology, Wayne State University, Detroit, Mich.). All cell lines were cultured as monolayer and maintained in RPMI1640 supplemented with 10% fetal bovine serum (FBS) in a humidified atmosphere with 5% CO2 at 37° C. MiaPaCa-2-GR culture was supplemented with 200 nM gemcitabine.
Cytotoxicity of compounds was evaluated with 3-(4,5-dimethylthiazol-2-yl)-2,5-diphenyltetrazolium bromide (MTT) assay. Cells were placed in 96-well plate at 3000-8000 cells/well. After overnight attachment, compounds were added to the wells at sequential dilutions (30 nM-10 μM for most cell lines). After 72 h treatment, MTT was added into the media to a final concentration of 300 μg/mL. Cells were incubated for 3 h at 37° C., and the insoluble formazan converted by viable cells were dissolved in 150 μL of DMSO. Absorbance at 570 nm was read by microplate reader (Molecular devices, Sunnyvale, Calif.), and inhibition of cell proliferation was calculated using the following formula: Inhibition of cell proliferation (%)=(1−ODtreatment/ODcontrol)×100%

Read-outs that look alike come from different tables or passages of the source.

`O=C1C(Nc2ccc(-c3ccccc3)cc2)=CC(=O)c2ncncc21` [QD325, 6-([1,1′-biphenyl]-4-ylamino)quinazoline-5,8-dione]: the “apoptosis signaling (IPA analysis)” value with MiaPaCa-2 cells [1] (4 h, QD232 3 times IC50, QD325 5 times IC50 (FIG. 4)) is “significant activation of apoptosis signaling”. In addition, the “nascent RNA synthesis of mitochondrial genome” value in the data set on MiaPaCa-2 cells [1] (4 h, QD232 at 6.9 μM, QD325 at 5.0 μM (FIG. 10A)) is reported as “inhibited”. Further, the “transcription of DDIT3 and HSPA5” value in the data set with MiaPaCa-2 cells [1] (4 h treatment, dose dependently (FIG. 8C)) was “significantly increased”. In addition, the “synthesis of NQO1 and HMOX1 RNAs” value in the data set with MiaPaCa-2 cells [1] (4 h treatment, QD232 at 1, 2 or 3 times IC50, QD325 at 1, 2 or 5 times IC50 (FIG. 8B)) is reported as “dose-dependently upregulated”. The IC50 was less than 1000 nM in the data set on MiaPaCa-2 cells [2] (MIA PaCa-2, 72 h, Table 1, MTT assay, 72 h); 900 ± 200 nM with MiaPaCa-2 cells [2] (MIA PaCa-2, Table 2, MTT assay, read-out: IC 50 MiaPaCa-2); less than 1000 nM in the data set with BxPC-3 cells (BXPC-3, 72 h, Table 1, 72 h, Mean ± SD); 500 ± 100 nM in the data set with BxPC-3 cells (BXPC-3, Table 2, Mean ± SD, read-out: IC 50 BxPC-3); 400 ± 100 nM in the data set on Panc-1 cells (Homo sapiens, PANC-1, Table 2, Mean ± SD, read-out: IC 50 Panc-1); less than 1000 nM with Panc-1 cells (Table 1, 72 h, Mean ± SD). Moreover, the “improvement in cytotoxicity compared with QD232” value in the data set on MiaPaCa-2 cells [2] (MTT assay in PDAC cell lines MiaPaCa-2, Panc-1 and BxPC-3) is listed as “more than two fold improvement in cytotoxicity”. In the data set on MiaPaCa-2 cells [2] (MTT assay, 72 h, NAC 5 mM (FIG. 3C)), the “cytotoxicity in presence of NAC” value is reported as “decreased cytotoxicity”. The “relative levels of mtDNA over time” value in data set [3] was “decreased time dependently”. In addition, in the data set with MiaPaCa-2 cells [4] (MiaPaCa-2, 24 h treatment, 10 μM (FIG. 1C)), the “ROS induction compared with lead compound QD232” value was “significantly higher ROS induction than the lead compound QD232”. Also, in the data set on MiaPaCa-2 cells [4] (MiaPaCa-2, 10, 3.3 or 1.1 μM (FIG. 3A)), the “accumulation of ROS” value was “time- and dose-dependent accumulation of ROS”. Besides, the “ROS accumulation at 10 and 3.3 μM” value in the data set on MiaPaCa-2 cells [4] (MiaPaCa-2, 10 and 3.3 μM) was “rapid and high ROS accumulation”. For the same compound, the “ROS induction after NAC pretreatment” value in the data set with MiaPaCa-2 cells [4] (MiaPaCa-2, NAC 5 mM for 30 min pretreatment (FIG. 3B)) was “inhibited”. Further, the “selectivity for MiaPaCa-2 over HPDE” value in the data set with HPDE came out at 3 fold.
